Numbered stars: 1 amine (or outer) side, 2 acyl side, 3 side chain; on linkers, the order of the positions; unused ones are H or OH. Bridge positions count the residues as written; N and C are the ends. Square brackets hold non-standard residues; d marks the D form. Peptide text beside a SMILES is read from it. * marks the point of attachment. X1 = CC[C@H](C)[C@@H](N[*:1])[C@@H](O)CC(=O)[*:2]; X2 = CC(C)[C@H](N[*:1])C(=O)[C@H](C)C(=O)[*:2]; NMeY = CN[C@@H](Cc1ccc(O)cc1)C(=O)O; dNMeL = CN[C@H](CC(C)C)C(=O)O; Cbz = O=C(OCc1ccccc1)*
Assays:
CV-1 = assay: Cytotoxicity in the HSV/CV-1 antiviral test; settings: scale 0-least toxic to 16 (toxic)
HSV = assay: Antiviral activity, HSV/CV-1; assay type: cell-based; design: key: +++ complete inhibition; ++ strong inhibition; + moderate inhibition; − no inhibition
Nb2 node lymphoma cells = settings: cited from earlier work
[1] = in vitro; cited from earlier work
DNA and RNA viruses = settings: cited from earlier work
[2] = molecular target: elongation factor 1α (EF-1α) (Homo sapiens, UniProt P68104); settings: GTP-dependent; cited from earlier work
Chain of elongation factor 1α (EF-1α) (P68104 whole entry): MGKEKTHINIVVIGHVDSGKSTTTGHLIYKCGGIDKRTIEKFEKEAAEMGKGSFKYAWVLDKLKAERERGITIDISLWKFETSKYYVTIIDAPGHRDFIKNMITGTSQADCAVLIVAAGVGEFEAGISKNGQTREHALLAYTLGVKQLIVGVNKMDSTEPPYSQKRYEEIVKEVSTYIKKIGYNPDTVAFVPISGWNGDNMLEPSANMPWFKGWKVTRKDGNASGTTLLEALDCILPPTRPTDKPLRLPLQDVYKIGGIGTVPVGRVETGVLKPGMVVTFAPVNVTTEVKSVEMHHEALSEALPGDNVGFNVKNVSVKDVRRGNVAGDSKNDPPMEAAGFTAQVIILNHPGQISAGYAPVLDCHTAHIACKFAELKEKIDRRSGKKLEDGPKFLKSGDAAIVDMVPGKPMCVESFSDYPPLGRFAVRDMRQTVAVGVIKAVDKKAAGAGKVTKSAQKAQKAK

## CC[C@H](C)[C@H]1NC(=O)[C@@H](NC(=O)[C@@H](CC(C)C)N(C)C(=O)OCc2ccccc2)[C@@H](C)OC(=O)[C@H](Cc2ccc(OC)cc2)N(C)C(=O)[C@@H]2CCCN2C(=O)[C@H](CC(C)C)NC(=O)[C@@H](C)C(=O)[C@H](C(C)C)NC(=O)C[C@@H]1O [Cbz-[Aip^3]-Didemnin A] (Cbz-[dNMeL]T[X1][X2]LP[NMeY](Me); ester 2-C)
CV-1; 10 ng/mL
  HSV/CV-1 Cytotoxicity: 0
CV-1; 20 ng/mL
  HSV/CV-1 Cytotoxicity: 0
CV-1; 50 ng/mL
  HSV/CV-1 Cytotoxicity: 8
CV-1; 100 ng/mL
  HSV/CV-1 Cytotoxicity: 10
HSV; 10 ng/mL
  HSV/CV-1 Activity (antiviral): −
HSV; 20 ng/mL
  HSV/CV-1 Activity (antiviral): +
HSV; 50 ng/mL
  HSV/CV-1 Activity (antiviral): +
HSV; 100 ng/mL
  HSV/CV-1 Activity (antiviral): +

## Didemnin B
Nb2 node lymphoma cells
  binding to a site on Nb2 node lymphoma cells: binds to a site on Nb2 node lymphoma cells
[1]
  cytotoxicity relative to didemnin A: approximately twenty times more cytotoxic than didemnin A
DNA and RNA viruses
  antiviral activity against DNA and RNA viruses: exhibit antiviral activity

## Didemnin A [Didemnin A (1)]
CV-1; 10 ng/mL
  HSV/CV-1 Cytotoxicity: 0
CV-1; 20 ng/mL
  HSV/CV-1 Cytotoxicity: 0
CV-1; 50 ng/mL
  HSV/CV-1 Cytotoxicity: 0
CV-1; 100 ng/mL
  HSV/CV-1 Cytotoxicity: 0
HSV; 10 ng/mL
  HSV/CV-1 Activity (antiviral): −
HSV; 20 ng/mL
  HSV/CV-1 Activity (antiviral): +
HSV; 50 ng/mL
  HSV/CV-1 Activity (antiviral): +
HSV; 100 ng/mL
  HSV/CV-1 Activity (antiviral): +
DNA and RNA viruses
  antiviral activity against DNA and RNA viruses: exhibit antiviral activity
[2]
  binding to elongation factor 1α (EF-1α): binds elongation factor 1α (EF-1α) in a GTP-dependent manner

Source: US6380156B1, “Total synthesis of the amino hip analogue of didemnin A” (The Board of Trustees of the University of Illnois, priority 1996, dated 2002)
